Data: patent publication US11883423B2, “Nucleobase analogue derivatives and their applications” (BOARD OF REGENTS, THE UNIVERSITY OF TEXAS SYSTEM, priority 2014, dated 2024)
pIC50: −log10 of the molar value.

What was measured:
[1] = Aqueous solubility by the indirect method (IPM/water partitioning, Beall et al.); type: physicochemical
Procedure: The aqueous solubility of Gem-DHA was determined following an indirect method according to Beall et al. with minimal modifications (Beall HD et al. International Journal of Pharmaceutics. 1993, 93, 37-47). Briefly, an excess amount of Gem-DHA was added to 100 μl of IPM in a crimp-sealed amber glass vials under nitrogen and was stirred vigorously at room temperature for 24 h, protected from light. After the stirring was stopped, the mixture was left to stand for an additional 24 h for equilibration. The content of the vial was centrifuged (14,000 rpm, 10 min) and the supernatant was transferred into a different tube. Aliquots of the saturated IPM solution were used to measure the Gem-DHA concentration before partitioning (A1) using HPLC (after proper dilution with methanol). Then, water was added to the IPM saturated solution in a volume ratio of 10:1. The two phases were mixed by vortexing for 5 min, left to stand for 15 min, then centrifuged (14,000 rpm, 15 min) to collect the IPM layer. Gem-DHA concentration in the IPM layer (A2) was again measured using HPLC after partitioning. The following equation was used to calculate the partition coefficient (KIPM/water) (Beall HD et al. International Journal of Pharmaceutics. 1993, 93, 37-47):
[formula] where Vwater is the volume of the water phase and VIPM is the volume of IPM. The value of (Vwater/VIPM) was 10.
The aqueous solubility (Sw) of Gem-DHA was determined using the following equation (Id.):
[formula] where SIPM is the solubility of Gem-DHA in IPM.
In order to validate the method of Beall et al. (Id.), the aqueous solubility of 4-(N)-stearoyl gemcitabine, another lipophilic gemcitabine conjugate (Sloat BR et al. Int J Pharm. 2011, 409(1-2), 278-288), which is stable in water, was measured directly (i.e., direct method) or using the indirect method reported by Beall et al. (Beall HD et al. International Journal of Pharmaceutics. 1993, 93, 37-47).

[2] = test system: Panc-02 cells; test: Cytotoxicity, LDH assay, Panc-02 cells; type: cell-based, mouse; conditions: 48 h
Procedure: The cytotoxic activity of Gem-DHA was also evaluated using an LDH assay kit (Takara Clontech). Panc-02 cells were seeded in 96-well plates at 1,500 cells/well and incubated at 37° C. and 5% CO2 for 24 h, followed by treatment with Gem-DHA or gemcitabine HCl as mentioned above for 48 h. LDH activity in the cell culture medium was determined following the manufacturer's instruction.

[3] = test system: BxPC-3 cells; test: Anti-proliferative activity, MTT assay, BxPC-3 cells; type: cell-based, human; conditions: Bx-PC3 cells
Procedure: (§1) The anti-proliferative activity of Gem-DHA was evaluated in Panc-02, TC-1, Panc-1-Luc, and BxPC-3 cell lines. For Panc-02 and TC-1 cells, cells (1,500/well for Panc-02 and 3,000/well for TC-1) were seeded in 96-well plates and incubated at 37° C. and 5% CO2 overnight. The cells were then treated with various concentrations of Gem-DHA or other compounds for 24 h. For BxPC-3 and Panc-1-Luc cells, 3,000 and 1,000 cells/well were used, respectively, and cells were co-incubated with the Gem-DHA for 72 h. Cell viability was determined using an MTT assay as previously described (Naguib YW et al. Mol Pharm. 2014, 11(4), 1239-1249). Gemcitabine HCl was dissolved in cell culture medium, whereas Gem-DHA and DHA were dissolved in dimethylsulfoxide (DMSO). The values of IC50 were calculated using GraphPad Prism (GraphPad software, Inc., La Jolla, CA).

[4] = test system: Panc-02 cells; test: Anti-proliferative activity, MTT assay, Panc-02 cells; type: cell-based; conditions: Mus musculus, Panc02, 24 h
Procedure: as §1

[5] = test system: Panc-02 tumors; test: Antitumor activity against s.c. Panc-02 tumors in C57BL/6 mice; type: in vivo
Procedure: Therefore, the in vivo anti-tumor activity of Gem-DHA was also evaluated and compared to that of DHA alone in male C57BL/6 mice (6-8 weeks, Charles River) with subcutaneously (s.c.)
implanted Panc-02 tumors. Briefly, 1×10^6 cells were s.c. injected in the right flank of mice. Sixteen days later, mice were randomized into groups (n=12) and i.p. injected with Gem-DHA (˜55 mg/kg, […]) or DHA (˜33 mg/kg, ˜0.1 mmole/kg). Mice in the control group were i.p. injected with sterile 5% mannitol (w/v). Gem-DHA and DHA was dissolved in a Tween 80/ethanol/water solution with 5% (w/v) of mannitol. The doses were based on the average weight of mice in the same group on the first day of injection. The treatment was repeated twice a week for up to 6 doses. Tumor growth was monitored using a digital caliper, and tumor volume was calculated based on the longest diameter (L1) and the shortest diameter (L2) of each tumor using the equation of V=½×(L1×L2×L2).

[6] = test system: NCI-60 human tumor cell lines; test: NCI-60 DTP Human Tumor Cell Line Screen, single dose; type: cell-based
Procedure: The cytotoxicity of Gem-DHA was also tested using the NCI-60 DTP Human Tumor Cell Line Screen service.

[7] = test system: TC-1 mouse lung cancer cells; test: Anti-proliferative activity, MTT assay, TC-1 cells; type: cell-based; conditions: 24 h
Procedure: as §1

For CC/C=C\C/C=C\C/C=C\C/C=C\C/C=C\C/C=C\CCC(=O)Nc1ccn(C2OC(CO)C(O)C2(F)F)c(=O)n1 (stereo not drawn) [Gem-DHA, 4-(N)-Docosahexaenoyl Difluorodeoxycytidine], which “KIPM/water (partition coefficient)” value [1] is on record?
Its value is 194.72 ± 111.3.

What about the “Stability in IPM, remaining” value ([1]; buffer, 48 h) of the same molecule?
Its value is over 92%.

And the “Cytotoxicity, LDH assay (comparison)” value [2]?
Its value is “more cytotoxic than gemcitabine HCl”.

What about the “Fold by which IC50 is smaller than that of gemcitabine HCl” value [3] of the same molecule?
The value was 1.8×10^5 fold.

What about the pIC50 [4] of the same molecule?
Its pIC50 is 10.47.

What about the “Tolerability (body weights)” value ([5]; Panc-02 tumor-bearing mice, dosing regimen tested) of the same molecule?
The value was “well tolerated”.

What about the “Inhibition of Panc-02 tumor growth” value ([5]; i.p., ~0.1 mmole/kg, twice a week, up to 6 doses) of the same molecule?
Its value is “significantly inhibited the tumor growth”.

And the “Growth inhibition in NCI-60 screen” value [6]?
The value was “inhibited the growth of various types of human tumor cells”.

And the “Inhibition of tumor cell growth (comparison)” value [7]?
Its value is “more effective than gemcitabine alone or the physical mixture of gemcitabine and DHA”.
